target: Human CYP17 enzyme (Cytochrome P450, 17-20 lyase) (Homo sapiens (Human), UniProt P05093); experiment: CYP17 lyase assay, recombinant human CYP17 enzyme, 17-α-hydroxy pregnenolone [21-3H] substrate; assay type: biochemical; settings: recombinant human CYP17, first value of Human/Rat cell; read-out: Lyase IC 50 Human
Description: 1) Cvtochrome P450, 17-20 Lyase (CYP17-Lyase) Assay Development Using Recombinant Human CYP17 Enzyme and 17-α-Hydroxy Pregnenolone [21-3H] as the Substrate
Cytochrome P450, 17-α-Hydroxylase, 17-20 lyase (CYP17) is a multi functional enzyme that plays a key role in the biosynthesis of steroid hormones. […] In the hydroxylation reaction, it converts progesterone and pregnenolone to the corresponding hydroxylated products 17-α-hydroxy progesterone and 17-α-hydroxy pregnenolone. In the lyase reaction, it catalyzes the conversion of these hydroxylated substrates to Androstenedione and Dehydroepiandrosterone (DHEA) respectively. In the Cyp17 lyase assay described here, the conversion of 17-α-hydroxy pregnenolone to Dehydroepiandrosterone and acetic acid is being monitored.
The conversion of 17-α-hydroxy pregnenolone to Dehydroepiandrosterone is accompanied by the release of acetic acid. In the Cyp17 lyase assay, 17-α-hydroxy pregnenolone labeled with tritium (3H) at position 21 is used as the substrate. Chloroform extraction removes the radioactive steroids and acetic acid is taken into aqueous layer. The tritiated acetic acid released in the assay thus extracted is quantified to determine the enzyme activity.
Human Cyp 17 gene was cloned and expressed in Adenoviral expression system in A549 cell lines. The purified cell membrane preparations were used as the source for Human CYP17 enzyme. Total protein concentration: 8 mg/mL.
For routine screening, the assay was set up with 16 μg of enzyme in 50 μL reaction volume. 17α-hydroxy pregnenolone [21-3H] was added to a final concentration of […] NADPH is used at a final concentration of 4.2 mM. Total reaction volume was made up to 50 μL with 50 mM Phosphate buffer pH 7.5. The reaction mixture was incubated at room temperature for 90 minutes with gentle shaking. The reaction was stopped by the addition of 100 μl, of buffer. 500 μl, of 5% freshly prepared activated charcoal was added to the solution and mixed well by vortexing. The samples were centrifuged at 17568×g for 5 minutes. (14000 rpm). The supernatant was carefully transferred to fresh tube and 1.3 mL of scintillation fluid was added, mixed by vortexing.
The measurements were carried out in 2.0 mL Eppendorf™ tubes. Each tube was counted for 1 minute. The amount of tritiated acetic acid released is proportional to the lyase activity. Percent lyase activity in presence of inhibitor was calculated using the formula given below.
[formula] Sample: Enzyme reaction in presence of inhibitor. Positive control: Enzyme reaction without inhibitor but containing DMSO at 1% final concentration. Blank—Contains all reagents except enzyme. % Inhibition=100%−% Lyase activity
For IC50 determination, the % inhibition was plotted as a function of inhibitor concentration. The data was fitted to sigmoidal equation using Graphpad Prism® software IV to generate IC50 values.

Sequence of Human CYP17 enzyme (Cytochrome P450, 17-20 lyase) (P05093 whole entry): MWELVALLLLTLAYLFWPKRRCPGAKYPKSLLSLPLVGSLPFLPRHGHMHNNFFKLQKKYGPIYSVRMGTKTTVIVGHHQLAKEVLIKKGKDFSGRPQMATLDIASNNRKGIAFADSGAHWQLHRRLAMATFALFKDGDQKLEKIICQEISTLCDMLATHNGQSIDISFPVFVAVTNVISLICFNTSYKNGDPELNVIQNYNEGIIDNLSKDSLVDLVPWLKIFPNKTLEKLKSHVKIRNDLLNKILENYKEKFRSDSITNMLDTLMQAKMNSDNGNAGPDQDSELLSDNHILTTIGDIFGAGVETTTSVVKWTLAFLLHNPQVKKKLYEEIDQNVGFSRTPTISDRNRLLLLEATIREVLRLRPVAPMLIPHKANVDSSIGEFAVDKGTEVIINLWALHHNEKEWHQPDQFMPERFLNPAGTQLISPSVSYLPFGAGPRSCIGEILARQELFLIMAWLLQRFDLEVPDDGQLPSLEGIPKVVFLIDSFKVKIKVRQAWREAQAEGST

Row | Compound | IC50
1 | O=C1N(c2ccc3ccccc3c2)CCN1c1cnccc1C1CC1 [Example 3A, 1-(4-cyclopropylpyridin-3-yl)-3-(naphthalen-2-yl)imidazolidin-2-one] | 26 nM
2 | O=C1N(c2ccc3sccc3c2)CCN1c1cnccc1C1CC1 [Example 4A, 1-(benzo[b]thiophen-5-yl)-3-(4-cyclopropylpyridin-3-yl)imidazolidin-2-one] | 13 nM
3 | O=C1N(c2cccc(C(F)(F)F)c2)CCN1c1cnccc1C1CC1 [Example 5A, 1-(4-cyclopropylpyridin-3-yl)-3-(3-(trifluoromethyl)phenyl)imidazolidin-2-one] | 6 nM
4 | O=C1N(c2cc3ccccc3s2)CCN1c1cnccc1C1CC1 [Example 6A, 1-(benzo[b]thiophen-2-yl)-3-(4-cyclopropylpyridin-3-yl)imidazolidin-2-one] | 13 nM
5 | Cc1nc(Cl)cc(N2CCN(c3cnccc3C3CC3)C2=O)n1 [Example 7A, 1-(6-chloro-2-methylpyrimidin-4-yl)-3-(4-cyclopropylpyridin-3-yl)imidazolidin-2-one] | 41 nM
6 | O=C1N(c2cc(C(F)(F)F)ccn2)CCN1c1cnccc1C1CC1 [Example 8A, 1-(4-cyclopropylpyridin-3-yl)-3-(4-(trifluoromethyl)pyridin-2-yl)imidazolidin-2-one] | 22 nM
7 | O=C1N(c2cc(Cl)ncn2)CCN1c1cnccc1C1CC1 [Example 10A, 1-(6-chloropyrimidin-4-yl)-3-(4-cyclopropylpyridin-3-yl)imidazolidin-2-one] | 121 nM
8 | O=C1N(c2ccnc(C(F)(F)F)n2)CCN1c1cnccc1C1CC1 [Example 12A, 1-(4-cyclopropylpyridin-3-yl)-3-(2-(trifluoromethyl)pyrimidin-4-yl)imidazolidin-2-one] | 99 nM
9 | O=C1N(c2ccc3scc(C(F)(F)F)c3c2)CCN1c1cnccc1C1CC1 [Example 13A, 1-(4-cyclopropylpyridin-3-yl)-3-(3-(trifluoromethyl)benzo[b]thiophen-5-yl)imidazolidin-2-one] | 11 nM
10 | O=C1N(c2ccc3sc(F)cc3c2)CCN1c1cnccc1C1CC1 [Example 14A, 1-(4-cyclopropylpyridin-3-yl)-3-(2-fluorobenzo[b]thiophen-5-yl)imidazolidin-2-one] | 26 nM
11 | Cc1csc2ccc(N3CCN(c4cnccc4C4CC4)C3=O)cc12 [Example 15A, 1-(4-cyclopropylpyridin-3-yl)-3-(3-methylbenzo[b]thiophen-5-yl)imidazolidin-2-one] | 6.7 nM
12 | O=C1N(c2ccc3ccsc3c2)CCN1c1cnccc1C1CC1 [Example 16A, 1-(benzo[b]thiophen-6-yl)-3-(4-cyclopropylpyridin-3-yl)imidazolidin-2-one] | 7 nM
13 | O=C1N(c2ccc3c(c2)OC(F)(F)O3)CCN1c1cnccc1C1CC1 [Example 17A, 1-(4-cyclopropylpyridin-3-yl)-3-(2,2-difluorobenzo[d][1,3]dioxol-5-yl)imidazolidin-2-one] | 58 nM
14 | Cc1csc2cc(N3CCN(c4cnccc4C4CC4)C3=O)ccc12 [Example 18A, 1-(4-cyclopropylpyridin-3-yl)-3-(3-methylbenzo[b]thiophen-6-yl)imidazolidin-2-one] | 76 nM
15 | Cc1coc2ccc(N3CCN(c4cnccc4C4CC4)C3=O)cc12 [Example 19A, 1-(4-cyclopropylpyridin-3-yl)-3-(3-methylbenzofuran-5-yl)imidazolidin-2-one] | 2.7 nM
16 | O=C1N(c2ccc3sc(Cl)cc3c2)CCN1c1cnccc1C1CC1 [Example 20A, 1-(2-chlorobenzo[b]thiophen-5-yl)-3-(4-cyclopropylpyridin-3-yl)imidazolidin-2-one] | 106 nM
17 | O=C1N(c2ccc3c(c2)CCC3)CCN1c1cnccc1C1CC1 [Example 21A, 1-(4-cyclopropylpyridin-3-yl)-3-(2,3-dihydro-1H-inden-5-yl)imidazolidin-2-one] | 17 nM
18 | O=C1N(c2cc3cc(F)ccc3s2)CCN1c1cnccc1C1CC1 [Example 22A, 1-(4-cyclopropylpyridin-3-yl)-3-(5-fluorobenzo[b]thiophen-2-yl)imidazolidin-2-one] | 7 nM

Row | Compound | IC50
19 | O=C1N(c2ccc3c(C(F)(F)F)csc3c2)CCN1c1cnccc1C1CC1 [Example 23A, 1-(4-cyclopropylpyridin-3-yl)-3-(3-(trifluoromethyl)benzo[b]thiophen-6-yl)imidazolidin-2-one] | 1210 nM
20 | Cc1c(F)sc2ccc(N3CCN(c4cnccc4C4CC4)C3=O)cc12 [Example 24A, 1-(4-Cyclopropyl-pyridin-3-yl)-3-(2-fluoro-3-methylbenzo[b]thiophen-5-yl)-imidazolidin-2-one] | 19 nM
21 | O=C1N(c2ccc3cc(F)sc3c2)CCN1c1cnccc1C1CC1 [Example 25A, 1-(4-cyclopropyl-pyridin-3-yl)-3-(2-fluoro-benzo(b)thiophene-6-yl)imidazolidin-2-one] | 30 nM
22 | O=C1N(c2cc(F)c3ccsc3c2)CCN1c1cnccc1C1CC1 [Example 26A, 1-(4-cyclopropyl-pyridin-3-yl)-3-(4-fluoro-benzo[b]thiophen-6-yl)imidazolidin-2-one] | 6 nM
23 | O=C1N(c2cc3sccc3cc2F)CCN1c1cnccc1C1CC1 [Example 27A, 1-(4-cyclopropyl-pyridin-3-yl)-3-(5-fluoro-benzo[b]thiophen-6-yl)imidazolidin-2-one] | 461 nM
24 | O=C1N(c2cc3ccsc3cc2F)CCN1c1cnccc1C1CC1 [Example 28A, 1-(4-cyclopropylpyridin-3-yl)-3-(6-fluorobenzo[b]thiophen-5-yl)imidazolidin-2-one] | 548 nM
25 | O=C1N(c2ccnc(Cl)c2)[C@@H]2C[C@@H]2N1c1cnccc1C1CC1 [Example 30A-I, (1R,5S)-2-(2-chloropyridin-4-yl)-4-(4-cyclopropylpyridin-3-yl)-2,4-diazabicyclo[3.1.0]hexan-3-one] | 161 nM
26 | O=C1N(c2cnccc2C2CC2)[C@@H]2C[C@@H]2N1c1ccnc(Cl)c1 [Example 30A-II, (1S,5R)-2-(2-chloropyridin-4-yl)-4-(4-cyclopropylpyridin-3-yl)-2,4-diazabicyclo[3.1.0]hexan-3-one] | 6 nM
27 | COc1cc(N2C(=O)N(c3cnccc3C3CC3)[C@H]3C[C@H]32)ccn1 [Example 31A-1, (1S,5R)-2-(4-cyclopropylpyridin-3-yl)-4-(2-methoxypyridin-4-yl)-2,4-diazabicyclo[3.1.0]hexan-3-one] | 169 nM
28 | COc1cc(N2C(=O)N(c3cnccc3C3CC3)[C@@H]3C[C@@H]32)ccn1 [Example 31A-II, (1R,5S)-2-(4-cyclopropylpyridin-3-yl)-4-(2-methoxypyridin-4-yl)-2,4-diazabicyclo[3.1.0]hexan-3-one] | 12 nM
29 | O=C1N(c2ccnc(C(F)(F)F)c2)[C@@H]2C[C@@H]2N1c1cnccc1C1CC1 [Example 32A-I, (1S,5R)-2-(4-cyclopropylpyridin-3-yl)-4-(2-(trifluoromethyl)pyridin-4-yl)-2,4-diazabicyclo[3.1.0]hexan-3-one] | 184 nM
30 | O=C1N(c2ccnc(Cl)c2)CCN1c1cnccc1C1(O)CCC1 [Example 33A, 1-(2-chloro-pyridin-4-yl)-3-[4-(1-hydroxy-cyclobutyl)-pyridin-3-yl]imidazolidin-2-one] | 45 nM
31 | O=C1N(c2ccnc(Cl)c2)CCN1c1cnccc1C1CCCC1 [Example 34A, 1-(2-chloropyridin-4-yl)-3-(4-cyclopentyl-pyridin-3-yl)-imidazolidin-2-one] | 13 nM
32 | O=C1N(c2ccnc(Cl)c2)CCN1c1cnccc1C1(O)CCCC1 [Example 35A, 1-(2-chloropyridin-4-yl)-3-[4-(1-hydroxycyclopentyl)-pyridin-3-yl]-imidazolidin-2-one] | 341 nM
33 | O=C1N(c2cccc(C(F)(F)F)c2)CCN1c1cnccc1C1(O)CC1 [Example 36A, 1-[4-(1-hydroxy-cyclopropyl)-pyridin-3-yl]-3-(3-trifluoromethyl-phenyl)-imidazolidin-2-one] | 27 nM
34 | O=C1N(c2cc(Cl)nc(C(F)(F)F)c2)CCN1c1cnccc1C1CC1 [Example 37A, 1-(2-chloro-6-(trifluoromethyl)pyridin-4-yl)-3-(4-cyclopropylpyridin-3-yl)imidazolidin-2-one] | 5 nM
35 | O=C1N(c2cc(C3CC3)ncn2)CCN1c1cnccc1C1CC1 [Example 38A, 1-(4-cyclopropylpyridin-3-yl)-3-(6-cyclopropylpyrimidin-4-yl)imidazolidin-2-one] | 48 nM
